Source: PMC7211198, “Phase 1b study of a small molecule antagonist of human chemokine (C-C motif) receptor 2 (PF-04136309) in combination with nab-paclitaxel/gemcitabine in first-line treatment of metastatic pancreatic ductal adenocarcinoma” (Investigational New Drugs, 2019)
Values joined by “and” are separate entries in the source; they are usually repeats but may differ in a detail not shown here. Identical values can stand only once.

How the values were obtained:
[1] = system: metastatic pancreatic ductal adenocarcinoma; test: Antitumor response per RECIST version 1.1, mITT population; assay type: in vivo, human; settings: for Best overall response: Complete response / Best overall response: Early death / Best overall response: Indeterminate / Best overall response: Objective progression / Best overall response: Partial response / Best overall response: Stable/no response / Best overall response: Unconfirmed complete response / Best overall response: Unconfirmed partial response / Objective response rate (95% exact CI): mITT; for ORR: 95% exact CI
Description: The modified intent-to-treat (mITT) population was defined as all patients who had received at least one dose of study medication and had measurable disease at baseline assessment (within 28 days prior to study entry). The mITT population was assessed for antitumor response.
Objective response rate (ORR) was defined as the proportion of patients with confirmed complete response (CR) or confirmed PR according to Response Evaluation Criteria In Solid Tumors, version 1.1, relative to all enrolled patients who had baseline measurable disease. Confirmed responses were those that persisted on repeat imaging ≥4 weeks after initial documentation of response. Indeterminate responses were those with no documented progression and absence of proper assessment of target lesions.
Patients without on-study radiographic tumor re-evaluation and those who died, progressed, or dropped out for any reason prior to reaching a CR or PR were counted as nonresponders in the assessment of ORR. The ORR, CR, and PR point estimates for each treatment arm were provided along with the corresponding two-sided 95% confidence intervals (CIs) using an exact method.
Imaging for tumor assessments included computed tomography (CT) or MRI scans of the chest, abdomen, and pelvis; brain CT or MRI scan for patients with known or suspected brain metastases; and bone scan and/or bone X-rays for patients with known or suspected bone metastases.

[2] = Multiple-dose plasma pharmacokinetics, cycle 1 day 15; assay type: in vivo, human
Description: The hypothetical mechanisms of action of PF-04136309 were explored by analysis of biopsies, bone marrow aspirates, and peripheral blood (pre- and post-treatment during the study). Serial blood samples were collected from patients to determine the multiple-dose PK of PF-04136309 given in combination with nab-paclitaxel/gemcitabine.
Blood samples sufficient to provide ≥1 mL of plasma were collected for measurement of PF-04136309 concentrations. Plasma PF-04136309 concentrations were quantified with a validated liquid chromatography–mass spectrometry method. PF-04136309 concentration–time data from cycle 1 day 15 were analyzed using noncompartmental methods to estimate PK parameters.

[3] = system: CCL2; test: Plasma CCL2 levels by luminex-based immunoassay; assay type: in vivo, human; settings: most patients, 500 mg (n = 17) and 750 mg (n = 4) BID, over the course of study
Description: (§1) The levels of CD14 + CCR2+ IM or other immune-cell phenotypes in the samples from the core needle biopsy, fine-needle aspirate from primary tumor tissue, bone marrow, and peripheral blood were assessed by flow cytometry. CCL2 levels were determined using whole blood plasma by immunoassay using a luminex-based method. The ex vivo inhibition of CCL2-induced pERK by PF-04136309 was measured in whole blood using flow cytometry. Percentages of CD4+, CD8+, and CD4 + FoxP3+ T cells within CD45+ populations were evaluated by flow cytometry in paired fresh biopsy samples from three patients. Two patients provided both baseline and on-study biopsies, and one patient provided a baseline biopsy only.

[4] = system: CCL2-induced pERK; test: Ex vivo CCL2-induced pERK in whole blood by flow cytometry (target engagement); set-up: species or system human; settings: most patients, 500 mg (n = 17) and 750 mg (n = 4) BID, over the course of study
Text: The primary objectives were to evaluate the safety and tolerability of PF-04136309 in combination with nab-paclitaxel/gemcitabine, to characterize the dose-limiting toxicities (DLTs), and determine the RP2D of PF-04136309. Secondary objectives included assessment of PF-04136309 PK analysis and ex vivo inhibition of CCL2-induced extracellular signal-regulated kinase phosphorylation (pERK) as a measure of target engagement. Exploratory objectives included evaluation of CCL2 levels in peripheral blood and the prevalence of IM, TAM, and other relevant immune cells in the peripheral blood, bone marrow, and core needle biopsy of metastases or fine-needle aspirate primary tumor tissue.
as §1

[5] = system: CD14 + CCR2+ inflammatory monocytes; test: CD14+CCR2+ inflammatory monocytes in peripheral blood and bone marrow by flow cytometry; assay type: in vivo, human
Description: as §1

[6] = system: T cells and CCR2+ TAM in tumor biopsy; test: Immune cells in tumor biopsy samples by flow cytometry; assay type: in vivo, human
Description: as §1

[7] = system: metastatic pancreatic ductal adenocarcinoma; test: Antitumor response per RECIST version 1.1, mITT population; assay type: in vivo, human; settings: 500 mg group; 2 of 17 with progression events, rest censored; not an appropriate estimate
[8] = set-up: method as in PMID 27055731; settings: cited from earlier work
[9] = 500-mg BID (n = 13), steady state
[10] = 500-mg BID group (n = 13), steady state
[11] = 750-mg BID group (n = 2), individual values

## O=C(NCC(=O)N1CC[C@H](N[C@H]2CC[C@@](O)(c3ccc(-c4ncccn4)cn3)CC2)C1)c1cccc(C(F)(F)F)c1 [PF-04136309]
[1]; 500 mg BID + nab-P/Gem, N = 17
  Best overall response: Complete response: 0 n (%)
  Best overall response: Early death: 1 (5.9) n (%)
  Best overall response: Indeterminate: 5 (29.4) n (%)
  Best overall response: Objective progression: 3 (17.6) n (%)
  Best overall response: Partial response: 5 (29.4) n (%)
  Best overall response: Stable/no response: 2 (11.8) n (%)
  Best overall response: Unconfirmed complete response: 0 n (%)
  Best overall response: Unconfirmed partial response: 1 (5.9) n (%)
  Objective response rate (95% exact CI): 5 (29.4) (10.3–56.0) n (%)
[1]; 500 mg BID group (n = 17), 10.3–56.0%
  ORR: 29.4%
[1]; 750 mg BID + nab-P/Gem, N = 4
  Best overall response: Complete response: 0 n (%)
  Best overall response: Early death: 0 n (%)
  Best overall response: Indeterminate: 2 (50.0) n (%)
  Best overall response: Objective progression: 0 n (%)
  Best overall response: Partial response: 0 n (%)
  Best overall response: Stable/no response: 1 (25.0) n (%)
  Best overall response: Unconfirmed complete response: 0 n (%)
  Best overall response: Unconfirmed partial response: 1 (25.0) n (%)
  Objective response rate (95% exact CI): 0 (0.0–60.2) n (%)
[1]; all 21 patients, 8.2–47.2%
  ORR: 23.8%
[2]; [9]
  Coefficient of variation of AUCtau: 30%
  Coefficient of variation of Cmax: 44%
  Coefficient of variation of Cmin: 57%
[2]; [10]
  Mean AUCtau: 5873 ng·h/mL
  Mean Cmax: 1276 ng/mL
[2]; 500-mg BID, oral, with nab-paclitaxel/gemcitabine
  Median Tmax: 1.42 h
[2]; [11]
  AUCtau, observed values: 10,600 ng·hr/mL and 15,700 ng·hr/mL
  Cmax, observed values: 2950 ng/mL and 3390 ng/mL
[3]
  Change in plasma CCL2 levels: increase
[4]
  Change in CCL2-induced pERK: drop
[5]; 500 mg BID, week 6 post dosing vs baseline
  Accumulation of CCR2 + CD14+ monocytes in the bone marrow: not observed
[5]; nearly all patients, baseline to study day 2, sustained through day 15
  Change in absolute counts of CD14 + CCR2+ IM in peripheral blood: drop
[6]; one patient, data not shown
  Change in PD-1 + CD4+ and PD-1 + CD8+ cells in the tumor biopsy sample: increase
[6]; two patients, 500-mg BID group, individual values, data not shown
  CCR2+ TAM levels, change: ~4% to 3%
[6]; two patients, 500-mg BID group, baseline vs week 6
  Change in CD4+ and CD8+ cells within CD45+ populations in fresh biopsy tumor samples: increase
[7]
  Median progression-free survival (mPFS): 5.3 months
[8]; phase Ib, in combination with FOLFIRINOX
  Proportion of patients achieving partial response vs that anticipated with FOLFIRINOX alone: significantly increased
[8]; single agent, non-oncology studies (N = 178) and 39 advanced PDAC patients with FOLFIRINOX
  Pulmonary events reported: no pulmonary events
[8]; single oral dose up to 1000 mg, repeated oral up to 500 mg BID as single agent or with FOLFIRINOX
  Safety and tolerability: generally safe and well tolerated
[8]; with FOLFIRINOX, borderline resectable and locally advanced pancreatic cancer
  Tolerability: well-tolerated
